# According to patent publication US20050060764A1, “Mouse model for bone metabolism” (priority 2003, published 2005):
# Strand notation (5' to 3'): a small letter for the sugar, then the base; units joined by * are phosphorothioate-linked, units joined directly phosphodiester-linked; [ ] holds rarer units or linkages, { } end groups; capitals alone tell only the bases. e = 2'-O-(2-methoxyethyl) (MOE); [5mC] = 5-methylcytosine; d = 2'-deoxy (DNA)
# How the values were obtained:
# Format in all cases: cell-based
# mouse RANKL mRNA [1] = assay: Antisense inhibition of mouse RANKL mRNA levels in C2C12 cells, quantitative real-time PCR (Table 2); parameters: concentration or dose not given beside the values; conditions: averages from three experiments
# How it was run: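 C2C12 cells seeded at ~10,000 cells/cm^2, treated with antisense oligonucleotides (all C as 5-methylcytidine) in triplicate and harvested 16-24 h later. Mouse RANKL mRNA quantified by real-time RT-PCR with a FAM/TAMRA probe, with mouse GAPDH (JOE/TAMRA probe) as reference.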
# mouse RANKL mRNA [2] = assay: Antisense inhibition of mouse RANKL mRNA in C2C12 cells: dose response (Table 5); conditions: relative to untreated control
# Procedure: Cells were seeded into 24-well plates (Falcon-353047 at a density of ˜10,000 cells/cm^2 for use in antisense oligonucleotide transfection.
# Cells are treated and data are obtained in triplicate. […] Cells were harvested 16-24 hours after oligonucleotide treatment.
# Probes and primers to mouse RANKL were designed to hybridize to a mouse RANKL sequence, using published sequence information (GenBank accession number AF013170.1, incorporated herein as SEQ ID NO:ll). For mouse RANKL the PCR primers were: • forward primer: […] (SEQ ID NO:12) • reverse primer: […] (SEQ ID NO: 13) and • the PCR probe was: FAM-[…]-TAMRA (SEQ ID NO: 14) where FAM is the fluorescent reporter dye and TAMRA is the quencher dye. For mouse GAPDH the PCR primers were: • forward primer: […](SEQ ID NO:15) • reverse primer: […](SEQ ID NO:16) and the • PCR probe was: 5′ JOE-[…]-TAMRA 3′ (SEQ ID NO: 17) where JOE is the fluorescent reporter dye and TAMRA is the quencher dye.
# In accordance with the present invention, a subset of the antisense oligonucleotides in Example 16 was further investigated in dose-response studies. The oligonucleotides used in this investigation were ISIS 180812 (SEQ ID NO: 178), ISIS 180814 (SEQ ID NO: 180), ISIS 180819 (SEQ ID NO: 185), ISIS 180828 (SEQ ID NO: 194) and the control oligonucleotide ISIS 101757 ([…], SEQ ID NO: 355). […] All cytidine residues are 5-methylcytidines.
# C2C12 cells were treated with the oligonucleotides at 10, 50, 75, 100, and 150 nM as described in other examples herein. […] The results are expressed as percent inhibition relative to the untreated control. The data, shown in Table 5, are averages from two experiments and illustrate the oligonucleotides of the present invention are able to downregulate RANKL mRNA expression in a dose-dependent manner.
# RANKL mRNA [3] = assay: Antisense inhibition of RANKL mRNA expression followed by PTH treatment in primary mouse osteoblast cells: dose response (Table 8); conditions: 10 nM PTH last 2 h, relative to PTH alone
# Procedure: Primary mouse osteoblasts were prepared from calvaria of neonatal mice purchased from Charles River Laboratories. […] Cells were not passaged. Cells were seeded onto 6-well plates (Falcon-Primaria #353846) at a density of 50,000 cells/well for use in antisense oligonucleotide transfection.
# In a further embodiment of this invention, the effect of RANKL antisense oligonucleotides and PTH treatment on the expression of RANKL was determined in primary osteoblast cells isolated from mice skull caps.
# ISIS 143624 ([…], SEQ ID NO: 348) was used as a control oligonucleotide. […] All cytidine residues are 5-methylcytidines.
# Primary osteoblastic cells were transfected for 24 hours with either Isis 180819 (SEQ ID NO: 185) or the control oligo ISIS 143624 (SEQ ID NO: 348) at a dose of […], 125 nM, 250 nM, or 500 nM by the methods described herein but using the transfection reagent FuGENE 6 (Roche Applied Science, Indianapolis, Ind.). During the last 2 hours of oligonucleotide transfection, the cells were treated with 10 nM PTH. The RNA was then harvested and the expression levels of […] were measured by the methods described herein. The results are expressed as percent inhibition relative to PTH treatment alone and represent the average from three experiments.
# RANKL mRNA [4] = assay: as above; conditions: 63 nM oligonucleotide 24 h, 10 nM PTH last 2 h, relative to PTH alone
substance,measurement,setting,value
180819 (antisense eT*eG*e[5mC]*eA*eG*dG*dT*d[5mC]*d[5mC]*d[5mC]*dA*dG*d[5mC]*dG*d[5mC]*eA*eA*eT*eG*eT) [compound 180819],% INHIB (inhibition of mouse RANKL mRNA levels),mouse RANKL mRNA [1],66%
same,% Inhibition of RANKL mRNA,mouse RANKL mRNA [2]; 10 nM oligonucleotide,41%
same,% Inhibition of RANKL mRNA,mouse RANKL mRNA [2]; 50 nM oligonucleotide,39%
same,% Inhibition of RANKL mRNA,mouse RANKL mRNA [2]; 75 nM oligonucleotide,57%
same,% Inhibition of RANKL mRNA,mouse RANKL mRNA [2]; 100 nM oligonucleotide,71%
same,% Inhibition of RANKL mRNA,mouse RANKL mRNA [2]; 150 nM oligonucleotide,75%
same,% RANKL mRNA inhibition,RANKL mRNA [3]; 125 nM oligonucleotide 24 h,39%
same,% RANKL mRNA inhibition,RANKL mRNA [3]; 250 nM oligonucleotide 24 h,71%
same,% RANKL mRNA inhibition,RANKL mRNA [3]; 500 nM oligonucleotide 24 h,85%
same,% RANKL mRNA inhibition,RANKL mRNA [4],19%
